# Values of other authors in publication PMC12664280, “Integrative transcriptomics and peptidomics approach reveals unexpectedly diverse endogenous secretory peptides in Odorrana grahami frog skin” (BMC Biology, 2025).
# Bridges are numbered along the chain shown (N, C = ends). Where no end group is shown, it is not given here.
# Tested on: skin wound
# Details: previously reported ESPs in Odorrana grahami, Table S1; cited from earlier work
# Text: Supplement 12915_2025_2463_MOESM1_ESM.xlsx, sheet "Table S1" | column: Previously reported ESPs in Odorrana grahami || The cathelicidin family: In this study, we report two new ESPs, OG-CATH1 and OG-CATH2, with OG-CATH1 corresponding to two precursor proteins. These peptides are similar to OL-CATH1 and OL-CATH2 from the skin of O. livida, and Cathelicidin-RC1 from frog L. catesbeianus (Fig. S12). However, they show low similarity (20.3%, data not shown) to Cathelicidin-OA1 from the skin of O. andersonii.
row,Substance,Functional effect: wound-healing
1,APFRMGICTTN [odorregulin-E1],wound-healing
2,ATAWDFGPHGLLPIRPIRIRPLCG [odorranain-M1],wound-healing

# Tested on: not given
# Details: previously reported ESPs in Odorrana grahami, Table S1; cited from earlier work
# Text: (§1) Supplement 12915_2025_2463_MOESM1_ESM.xlsx, sheet "Table S1" | column: Previously reported ESPs in Odorrana grahami
Substance,Functional effect: myotropic activities,Functional effect: lectin
DDASDRAKKFYGLM [ranamargarin],myotropic activities,–
DDTEDLANKFIGLM [tachykinin_OG1],myotropic activities,–
QNTYRAPQWAVGHLM [odorranain-BLP-5],myotropic activities,–
QRECRAPHWAIGHFM [odorranain-BLP-1],myotropic activities,–
QREYRAPHWAIGHFM [odorranain-BLP-4],myotropic activities,–
QREYRTPHWAIGHFM [odorranain-BLP-3],myotropic activities,–
QSTYRAPQWAVGHLM [odorranain-BLP-2],myotropic activities,–
RPPGFSPFR [bradykinin],myotropic activities,–
RPPGFTPFR [Thr6-bradykinin],myotropic activities,–
RPPGLTPFR [Leu5Thr6-bradykinin],myotropic activities,–
YASPKCFRYPNGVLACT [odorranalectin],–,lectin

# Same assay, conditions: previously reported ESPs in Odorrana grahami, Table S1; discovered in brain only; cited from earlier work
row,Substance,Functional effect: opioid peptide
1,DYTIRTRLHQESSRKVL [odorranaopin],opioid peptide discovered in brain ONLY

# Tested on: trypsin
# Details: previously reported ESPs in Odorrana grahami, Table S1; cited from earlier work
# Text: as §1
row,Substance,Functional effect: trypsin inhibitor
1,AALKGCWTKSIPPKPCFGKR [odorranain-B1],trypsin inhibitor
2,"AVNIPFKVHFRCKAAFC (disulfide 12-17 (inferred)) [OGTI, FSAP family mature peptide identified via LC-MS/MS in O. grahami skin secretion]",trypsin inhibitor

# Tested on: NO release
# Details: previously reported ESPs in Odorrana grahami, Table S1; cited from earlier work
# Text: as §1
row,Substance,Functional effect: inhibits NO release
1,"GLFGKILGVGKKVLCGLSGMC (disulfide 15-21 (inferred)) [nigrocin-2GRb, FSAP family mature peptide identified via LC-MS/MS in O. grahami skin secretion]",inhibits NO release
2,GLGGAKKNFIIAANKTAPQSVKKTFSCKLYNG [odorranain-E1],inhibits NO release

# Tested on: not given
# Details: annotation in words; no reference given, so it comes from the DADP database (table note); ref DADP database; cited from earlier work
# Text: Supplement 12915_2025_2463_MOESM1_ESM.xlsx, sheet "Table S8" | column: Functional effect
row,Substance,Functional effect
1,AALRGCWTKSIPPKPCSGKR [Odorranain-B-RA1],antimicrobial
2,ATNIPFKVHFRCKAAFC [Ranatuerin-2R-RA1],antimicrobial
3,AVNIPFKVHFRCKAAFC [Ranatuerin-2R-RA2],antimicrobial
4,DANVENGEDAEDLTDKFIGLMG [Andersonin-6],immunomodulating
5,DCTRWIIGINGRICRD [Nigroain-E-RA],antimicrobial
6,FLPAVIRVAANVLPTAFCAISKKC [Brevinin-1-RAA10],antimicrobial
7,FLPKLFAGIISKNF [Andersonin-Y2],antimicrobial
8,FLPKLFAKITKKNMAHIR [Andersonin-Y1],antimicrobial
9,FLPPSPWKETFRTS [Odorranain-S-RA],antimicrobial
10,FMPILSCSRFKRC [Odorranain-G-RA2],antimicrobial
11,GCSRWIIGIHGQICRD [Odorranain-U-RA],antimicrobial
12,GFMATAKNVAKNMDVTLLDNLKCKITKAC [Odorranain-F-OA4],antimicrobial
13,GFMDTAKNVAKNEAGNLLDNLKCKITKAC [Odorranain-F-OA3],antimicrobial
14,GFMDTAKNVAKNMAGNLLDNLKCKITKAC [Odorranain-F-OA1],antimicrobial
15,GFMDTAKNVAKNMAVTLLDNLKCKITKAC [Odorranain-F-RA1],antimicrobial
16,GIFGKILGVGKKTLCELSGMC [Nigrocin-1-OA2],antimicrobial
17,GIFLKVLGVGKKVLCGVSGLC [Nigrocin-1-OA3],antimicrobial
18,GIFTLIKGAAKLIGKTVAKEAGKTGLELMACKITNQC [Esculentin-2-RA2],antimicrobial
19,GILDTFKNMALNAAKSAGVSVLNALSCKLSKTC [Brevinin-2-RA9],antimicrobial
20,GLFSKFAGKGIKDLIFKGVKHIGKEVGMDVIRTGIDVAGCKIKGEC [Esculentin-1-RA8],antimicrobial
21,GLFSKFAGKGIKNFLIKGVKHIGKEVGMDVIRTGIDVAGCKIKGEC [Esculentin-1-RA5],antimicrobial
22,GLFSKFAGKGIKNFLNKGVKHIGKE [Esculentin-1-OA6],antimicrobial
23,GLFSKFAGKGIKNLIFKGVKHIGKEVGMDVIRTGIDVAGCKIKGEC [Esculentin-1-RA7],antimicrobial

row,Substance,Functional effect
1,GLFSKFAGKGIVNFLIEGVE [Andersonin-X1],antimicrobial
2,GLFSKFSGKGIKNFLIKGVKHIGKEVGMDVIRTGIDVAGCKIKGEC [Esculentin-1-OA2],antimicrobial
3,GLFSKFVGKGIKNFLIKGVKHIGKEVGMDVIRVGIDVAGCKIKGVC [Esculentin-1-OA1],antimicrobial
4,GLFTKFAGKGIKDLIFKGVKHIGKEVGMDVIRTGIDVAGCKIKGEC [Esculentin-1-RA4],antimicrobial
5,GLFTLIKGAAKLIGKTTAKEAGKTGKLEMACKITNQC [Esculentin-2-OA2],antimicrobial
6,GLFTLIKGAAKLIGKTVAKEAGKTGLELMACKITNQC [Esculentin-2-OA3],antimicrobial
7,GLFTLIKGAYKLDAPTVACN [Odorranain-J-OA1],antimicrobial
8,GLFTLIKGAYKNDAPTVACN [Odorranain-J-OA2],antimicrobial
9,GLLDGILNANFNAAKSAGTSVLNALSCKLSKTC [Brevinin-2-OA5],antimicrobial
10,GLLDTFKNLALNAAESAGVSVLNSLSCKLSKTC [Brevinin-2-RA5],antimicrobial
11,GLLDTFKNLALNAAKSAGVSVLNSLSCKLSKTC [Brevinin-2-RA11],antimicrobial
12,GLLDTFKNMAINAAHGAGVSVLNALSCKLKKTC [Brevinin-2-OA3],antimicrobial
13,GLLDTFKNMALNAAKSAGVSVLNALSCKLSKTC [Brevinin-2-OA2],antimicrobial
14,GLLRASSVWGRKYYVDLAGCAKA [Odorranain-W-RA1],antimicrobial
15,GLLSGILGAGKHIVCGLSGLC [Nigrosin-RA2],antimicrobial
16,GLLSGVLGVGKKIVCGLSGLC [Nigrosin-RA3],antimicrobial
17,GVLATVKNLLIGTGDGAAQSVLKTLSCKLSNDC [Brevinin-2-OA6],antimicrobial
18,GVLATVKNLLNGTGDGAAQSVLKTLSCKLSNDC [Brevinin-2-OA8],antimicrobial
19,GVLGTVKDLLIGAGKSAAQSTLKTLSCKISNDC [Brevinin-2-OA7],antimicrobial
20,VIPFVASVAAEMMQHVYCAASKKC [Odorranain-P-RA2],antimicrobial
21,VIVFVASVAAEMMQHVYCAASKKC [Odorranain-P-RA1],antimicrobial
22,VVKCSYRLGSPDSQCN [Odorranain-A-RA7],antimicrobial

# Same assay, conditions: annotation in words; ref [4]; cited from earlier work
row,Substance,Functional effect
1,ENMFNIKSSVESDSFWG [Andersonin-N1],"Insulin-Releasing, immunomodulating"
2,FIFPKKNIINSLFGR [Andersonin-I1],"antimicrobial, Insulin-Releasing, immunomodulating"
3,GLLSGINAEWPC [OA-GL12],wound-healing
4,QMFHLWYLRHMKNKKPMA [Andersonin-X],"Insulin-Releasing, immunomodulating"
5,TSRCIFYRRKKCS [Andersonin-G],"antimicrobial,Insulin-Releasing"
6,VAIYGRDDRSDVCRQVQHNWLVCDTY [Andersonin-M3],immunomodulating
7,VVKFSYRKGSPAPQKN [Odorranain-A-OA12],immunomodulating

# Tested on: HaCat cells
# Parameters: method as in PMID 18455266
# Details: mechanically injured HaCat cells; enhancing the expression of CXCL8, TGFβ, COX-2, VEGF and TLR2; ref [94]; cited from earlier work
row,Substance,In vitro wound healing potential
1,bombesin,in vitro wound healing potential
